Results on four compounds are retold here after publication PMC10655131 (Journal of medicinal chemistry, 2021).

In data set [1] the test system is recombinant HIV-1 RT. The following applies: read-out: IC50 (Anti-HIV RT enzyme inhibition activity); mean ± SD, n = 3; cited from earlier work.
The test system of data set [2] is recombinant HIV-1 RT. The data set is described as follows: colorimetric Reverse Transcriptase Assay. Type of data set: biochemical.
Data set [3] deals with HIV-1HXB2. Type of data set: cell-based. As to conditions: antiviral EC50 relative to best inhibitor (NBD-14189).
The test system of data set [4] is TZM-bl cells. As to conditions: read-out: CC50 (cytotoxicity), XTT, three days; cited from earlier work.

As for `CC1(C)CC(NC(=O)C(=O)Nc2ccc(Cl)cc2)CC(C)(C)N1` [NBD-556], the IC50 in data set [1] is over 200 µM. Regarding `NC[C@@H](NC(=O)c1ccc(-c2ccc(Cl)c(F)c2)[nH]1)c1ncc(CO)s1` [NBD-14075], the “increase in the IC50 value” in data set [2] (075 vs. 189 and 270) was ~ 10 fold.

`NC[C@H](NC(=O)c1ccc(-c2ccc(C(F)(F)F)cc2)[nH]1)c1nc(CO)cs1` [NBD-14189]: the “Fold-change from best inhibitor (IC50)” value in data set [2] (RT IC50 relative to best inhibitor (NBD-14189)) is reported as 1. The “Fold-change from best inhibitor (EC50)” value in data set [3] was 1. With `NC[C@@H](NC(=O)c1ccc(-c2ccc(C(F)(F)F)cn2)[nH]1)c1ncc(C(O)CO)s1` (some centres unmarked) [NBD-14306], in data set [4], the cytotoxic concentration (CC50) is over 113 µM.
